Measurements as given in ChEMBL document CHEMBL1150229, “Serrulatane diterpenes with antimycobacterial activity isolated from the West Indian sea whip Pseudopterogorgia elisabethae” (2001).
Activity calls are given as the source filed them. No cut-off for these calls is given here.

Experiments:
NCI60 = experiment: Cytotoxicity against human NCI60 cells; type: functional, cell-based
[1] = test system: Mycobacterium tuberculosis; experiment: Antitubercular activity against Mycobacterium tuberculosis H37Rv at 6.25 ug/ml; type: functional
[2] = test system: Mycobacterium tuberculosis; experiment: Antitubercular activity against Mycobacterium tuberculosis H37Rv at 12.5 ug/ml; type: functional

With CC(C)=CCC[C@H](C)[C@H]1CC[C@H](C)c2cc(O)c(C)cc21 as the compound, how does the Activity (NCI60) read?
Its Activity is “inactive”.

What about the Activity [1] of the same compound?
Its Activity is 77%.

Which Activity [2] does the source give for CC(C)=CCC[C@H](C)[C@H]1CC[C@H](C)c2c1cc(C)c1ncoc21 here?
Its Activity is 66%.

How did the Activity [2] turn out when CC(C)=CCC[C@H](C)[C@H]1CC[C@H](C)c2ccc(C)cc21 [EROGORGIAENE] was run?
The Activity was 96%.

For CC(C)=C[C@@H]1C[C@H](C)[C@H]2CC[C@H](C)c3c2c1c(C)c1ncoc31 [PSEUDOPTEROXAZOLE], which Activity [2] is on record?
Its Activity is 97%.
